PubChem BioAssay AID256 (DTP/NCI, 2004)
“And” between values parts separate entries of the source, which are not always exact repeats. Equal entries are not always repeated. Toxic doses and inconclusive results are not listed.

Tested on: CD2F1 mice, L1210 leukemia ip, survival T/C
Test: NCI In Vivo Anticancer Drug Screen. Data for tumor model L1210 Leukemia (intraperitoneal) in CD2F1 (CDF1) mice
Conditions: endpoint: mean survival time, higher = longer survival
Method in brief: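 Activity against a transplanted murine tumor was judged by comparing the compound group with a vehicle group. The outcome in the treated animals was divided by that in the controls.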

[1] = dose: 100.0 mg/kg/injection, schedule: Q04DX003 (ip), vehicle: saline with Tween-80
[2] = dose: 200.0 mg/kg/injection, schedule: Q04DX003 (ip), vehicle: saline with Tween-80
[3] = dose: 400.0 mg/kg/injection, schedule: Q04DX003 (ip), vehicle: saline with Tween-80
[4] = dose: 100.0 mg/kg/injection, schedule: Q01DX001 (ip), vehicle: saline with Tween-80
[5] = dose: 200.0 mg/kg/injection, schedule: Q01DX001 (ip), vehicle: saline with Tween-80
[6] = dose: 400.0 mg/kg/injection, schedule: Q01DX001 (ip), vehicle: saline with Tween-80

Q: Which results are given for `O=c1c2ccc(Cl)cc2[nH]c(=S)n1-c1ccc(Cl)cc1`?
A: T/C [1]: 104 % of control; T/C [2]: 93 % of control; T/C [3]: 102 % of control

Q: Which T/C (dose: 50.0 mg/kg/injection, schedule: Q01DX009 (ip), vehicle: saline with Tween-80) does the source give for `O=C(CNC(=O)Nc1cccc(C(F)(F)F)c1)N/N=C/c1cc(Br)ccc1O` here?
A: 96 % of control

Q: What about the T/C (dose: 100.0 mg/kg/injection, schedule: Q01DX009 (ip), vehicle: saline with Tween-80) of the same compound?
A: 88 % of control

Q: How did the T/C (dose: 6.25 mg/kg/injection, schedule: Q01DX009 (ip), vehicle: saline with Tween-80) turn out when `CN1CCCN(C)C1c1cc(Cl)ccc1O` was run?
A: 98 % of control

Q: What about the T/C (dose: 12.5 mg/kg/injection, schedule: Q01DX009 (ip), vehicle: saline with Tween-80) of the same compound?
A: 98 % of control

Q: And the T/C (dose: 25.0 mg/kg/injection, schedule: Q01DX009 (ip), vehicle: saline with Tween-80)?
A: 98 % of control

Q: What about the T/C [1] of the same compound?
A: 103 % of control

Q: What about the T/C [2] of the same compound?
A: 121 % of control

Q: And the T/C [3]?
A: 95 % of control

Q: What does the source list for `CC(=O)O[C@H]1CC[C@@]2(C)[C@@H](CC[C@@H]3[C@@H]2CC(=O)[C@]2(C)[C@@H]4[C@H](C[C@@H]32)O[C@]2(CC[C@@H](C)CO2)[C@H]4C)C1`?
A: T/C (dose: 100.0 mg/kg/injection, schedule: Q01DX001 (ip), vehicle: saline): 96 % of control; T/C (dose: 200.0 mg/kg/injection, schedule: Q01DX001 (ip), vehicle: saline): 101 % of control; T/C (dose: 400.0 mg/kg/injection, schedule: Q01DX001 (ip), vehicle: saline): 98 % of control

Q: With `COC(=O)Nc1nc2ccccc2[nH]1` as the compound, how does the T/C [4] read?
A: 98 % of control

Q: What about the T/C [5] of the same compound?
A: 91 % of control

Q: And the T/C [6]?
A: 96 % of control

Q: And the T/C (dose: 500.0 mg/kg/injection, schedule: Q04DX003 (ip), vehicle: saline with Tween-80)?
A: 119 % of control

Q: What about the T/C (dose: 600.0 mg/kg/injection, schedule: Q04DX003 (ip), vehicle: saline with Tween-80) of the same compound?
A: 122 % of control

Q: And the T/C (dose: 800.0 mg/kg/injection, schedule: Q04DX003 (ip), vehicle: saline with Tween-80)?
A: 111 % of control

Q: With `Cc1ccc[n+](CCCCCCCC[n+]2cccc(C)c2)c1` as the compound, how does the T/C (dose: 0.5 mg/kg/injection, schedule: Q04DX003 (ip), vehicle: saline) read?
A: 100 % of control

Q: And the T/C (dose: 1.0 mg/kg/injection, schedule: Q04DX003 (ip), vehicle: saline)?
A: 103 % of control

Q: What about the T/C (dose: 2.0 mg/kg/injection, schedule: Q04DX003 (ip), vehicle: saline) of the same compound?
A: 106 % of control

Q: For `CO[C@@]12[C@@H]3N[C@@H]3CN1C1=C(C(=O)C(NCC3CCCO3)=C(C)C1=O)[C@@H]2COC(N)=O` (stereo not given in full), which T/C (dose: 1.5 mg/kg/injection, schedule: Q01DX001 (ip), vehicle: distilled water + Tween-80) is on record?
A: 111 % of control

Q: What about the T/C (dose: 3.0 mg/kg/injection, schedule: Q01DX001 (ip), vehicle: distilled water + Tween-80) of the same compound?
A: 114 % of control and 116 % of control

Q: What about the T/C (dose: 6.0 mg/kg/injection, schedule: Q01DX001 (ip), vehicle: distilled water + Tween-80) of the same compound?
A: 121 % of control

Q: What about the T/C (dose: 36.0 mg/kg/injection, schedule: Q01DX001 (ip), vehicle: distilled water + Tween-80) of the same compound?
A: 158 % of control

Q: What does the source list for `C1SCc2c1c1c(c3c2CSC3)CSC1`?
A: T/C [4]: 87 % of control; T/C [6]: 87 % of control

Q: `Nc1ncnc2nc(SCc3cccc([N+](=O)[O-])c3)[nH]c12` was tested. Which T/C [4] did it give?
A: 96 % of control

Q: And the T/C [5]?
A: 90 % of control

Q: What about the T/C [6] of the same compound?
A: 90 % of control

Q: Which results are given for `CC(C)C1C=CC(C)(/C=C/N2CCCC2)CC1` (stereo not given)?
A: T/C (dose: 75.0 mg/kg/injection, schedule: Q01DX001 (ip), vehicle: other): 98 % of control; T/C (dose: 150.0 mg/kg/injection, schedule: Q01DX001 (ip), vehicle: other): 98 % of control; T/C (dose: 300.0 mg/kg/injection, schedule: Q01DX001 (ip), vehicle: other): 102 % of control

Q: For `Nc1ccccc1CO`, which T/C [1] is on record?
A: 100 % of control

Q: And the T/C [2]?
A: 95 % of control

Q: What about the T/C [3] of the same compound?
A: 95 % of control

Q: Which T/C (dose: 12.5 mg/kg/injection, schedule: Q01DX005 (ip), vehicle: water) does the source give for `OCC1OC(n2ccn(C3OC(CO)C(O)C3O)c2=S)C(O)C1O` (stereo not given) here?
A: 98 % of control

Q: What about the T/C (dose: 25.0 mg/kg/injection, schedule: Q01DX005 (ip), vehicle: water) of the same compound?
A: 106 % of control

Q: What about the T/C (dose: 50.0 mg/kg/injection, schedule: Q01DX005 (ip), vehicle: water) of the same compound?
A: 96 % of control

Q: And the T/C (dose: 100.0 mg/kg/injection, schedule: Q01DX005 (ip), vehicle: water)?
A: 98 % of control

Q: What about the T/C (dose: 200.0 mg/kg/injection, schedule: Q01DX005 (ip), vehicle: water) of the same compound?
A: 102 % of control

Q: What does the source list for `CCC(Cc1ccccc1Br)C1=NC(C)(C)CO1` (stereo not given)?
A: T/C (dose: 100.0 mg/kg/injection, schedule: Q01DX001 (ip), vehicle: acetone): 96 % of control; T/C (dose: 200.0 mg/kg/injection, schedule: Q01DX001 (ip), vehicle: acetone): 98 % of control
